Measured values published in ChEMBL document CHEMBL1147921, “SAR studies on thiazolo[4,5-d]pyrimidine based CXCR2 antagonists involving a novel tandem displacement reaction” (Bioorg Med Chem Lett, 2007).
In brackets after ≈: the same amount, converted by molar mass.

Columns and labels:
[1] = molecular target: T1, C-X-C chemokine receptor type 2 (Homo sapiens, UniProt P25025); test: Displacement of [125I]IL8 from human CXCR2 expressed in HEK 293 by SPA; type: cell-based, HEK293
T1 sequence (P25025 whole entry): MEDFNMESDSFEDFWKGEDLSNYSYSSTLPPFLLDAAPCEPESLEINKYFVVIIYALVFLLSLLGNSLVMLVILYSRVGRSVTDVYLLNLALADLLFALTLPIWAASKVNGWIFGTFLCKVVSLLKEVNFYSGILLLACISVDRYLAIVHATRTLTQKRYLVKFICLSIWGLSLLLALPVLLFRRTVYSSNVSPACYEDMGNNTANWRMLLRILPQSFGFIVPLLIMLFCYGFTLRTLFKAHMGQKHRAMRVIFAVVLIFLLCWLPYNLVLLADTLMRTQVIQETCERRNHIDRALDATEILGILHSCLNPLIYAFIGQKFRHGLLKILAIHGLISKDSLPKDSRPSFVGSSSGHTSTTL

[2] = molecular target: T1, C-X-C chemokine receptor type 2; test: Antagonistic activity against human CXCR2 in neutrophils assessed as blockade of GROalpha stimulated calcium mobilisation by FLIPR; type: functional
[3] = Protein binding in human plasma; type: ADME, cell-free; settings: read-out: PPB (converted)
[4] = Permeability across human Caco-2 cell membrane; type: ADME, cell-based; settings: read-out: permeability
[5] = Volume of distribution at steady state in iv dosed rat; type: ADME, organism-based; settings: in vivo, read-out: Vss
[6] = Half life in iv dosed rat; type: ADME, organism-based; settings: in vivo
[7] = Bioavailability in po dosed rat; type: ADME, organism-based; settings: in vivo
[8] = Solubility at pH 7.4; type: physicochemical; settings: buffer
[9] = Permeability from apical to basolateral side of the human Caco-2 cell membrane; type: ADME, cell-based; settings: read-out: permeability
[10] = Permeability from basolateral to apical side of the human Caco-2 cell membrane; type: ADME, cell-based; settings: read-out: permeability

IC50 [1] [nM] | Compound | other results
12.6 | C[C@H](CO)Nc1nc(SCc2ccccc2F)nc2nc(N)sc12 | 
15.8 | C[C@H](CO)Nc1nc(SCc2cccc(F)c2)nc2nc(N)sc12 | 
31.6 | C[C@H](CO)Nc1nc(SCc2ccccc2Cl)nc2nc(N)sc12 | 
15.8 | C[C@H](CO)Nc1nc(SCc2cccc(Cl)c2Cl)nc2nc(N)sc12 | 
100 | CC(C)(CO)Nc1nc(SCc2ccco2)nc2nc(N)sc12 | 
31.6 | C[C@H](CO)Nc1nc(SCc2ccco2)nc2nc(N)sc12 | 
1000 | Cc1nc(CSc2nc(NC(C)(C)CO)c3sc(N)nc3n2)cs1 | 
> 1000 | Nc1nc2nc(SCc3cccc(F)c3F)nc(N3CCCC3CO)c2s1 (configuration not stated) | 
7.94 | CNc1nc2nc(SCc3cccc(F)c3F)nc(N[C@H](C)CO)c2s1 | 
1580 | CCN(CC)c1nc2nc(SCc3cccc(F)c3F)nc(NC(CO)CO)c2s1 | 
31.6 | Nc1nc2nc(SCc3cccc(F)c3F)nc(NC(CO)CO)c2s1 | 
25.1 | CC[C@H](CO)Nc1nc(SCc2cccc(F)c2F)nc2nc(N)sc12 | 
25.1 | CC(C)(CO)Nc1nc(SCc2cccc(F)c2F)nc2nc(N)sc12 | IC50 [2]: 15.8 nM; fraction unbound [3]: 0.016; Papp [4]: 3.6 ×10⁻⁶ cm/s
15.8 | C[C@@H](O)[C@@H](CO)Nc1nc(SCc2cccc(F)c2F)nc2nc(N)sc12 | 
79.4 | CC(CO)(CO)Nc1nc(SCc2cccc(F)c2F)nc2nc(N)sc12 | 
126 | Cc1nc(CSc2nc(N[C@H](C)CO)c3sc(N)nc3n2)cs1 | 
12.6 | C[C@H](CO)Nc1nc(SCc2cccc(Cl)c2)nc2nc(N)sc12 | 
100 | CC[C@H](CO)Nc1nc(SCc2cccc(F)c2F)nc2nc(NC(C)C)sc12 | 
398 | CCN(CC)c1nc2nc(SCc3cccc(F)c3F)nc(N[C@H](C)CO)c2s1 | 
20 | C[C@H](CO)Nc1nc(SCc2cccc(F)c2F)nc2nc(NC3CC3)sc12 | 
 | C[C@H](CO)Nc1nc(SCc2cccc(F)c2F)nc2nc(N)sc12 | Vd [5]: 1.03 L/kg; half-life [6]: 1.2 h; bioavailability [7]: 9%; solubility [8]: 1.5 µg/mL (≈ 3.91 µM); Papp A→B [9]: 2.47 ×10⁻⁶ cm/s; Papp B→A [10]: 13.7 ×10⁻⁶ cm/s
3.98 | C[C@H](CO)Nc1nc(SCc2cccc(Cl)c2F)nc2nc(N)sc12 | 
100 | OCC(CO)Nc1nc(SCc2cccc(F)c2F)nc2nc(NC3CC3)sc12 | 
31.6 | CC(C)Nc1nc2nc(SCc3cccc(F)c3F)nc(N[C@H](C)CO)c2s1 | 
